In patent publication US12577231B2, “Androgen receptor PROTACS” (GlaxoSmithKline Intellectual Property Development Limited, priority 2023, dated 2026) one finds Dmax data, which are given here for twelve compounds.

Structures are written as SMILES. A value given as a limit tells only on which side of the number the result lay.

The target in the test is T1, Androgen Receptor protein in human LnCaP cells (Homo sapiens, UniProt P10275, T878A).
T1 construct: the AR gene was modified, using CRISPR/Cas9 editing, so the expressed AR protein included an 11 amino acid HiBiT tag; endogenous in cells; host or cells: clonal LnCaP derived cell line, endogenous AR gene edited by CRISPR/Cas9
T1 sequence (P10275 1-920 T878A): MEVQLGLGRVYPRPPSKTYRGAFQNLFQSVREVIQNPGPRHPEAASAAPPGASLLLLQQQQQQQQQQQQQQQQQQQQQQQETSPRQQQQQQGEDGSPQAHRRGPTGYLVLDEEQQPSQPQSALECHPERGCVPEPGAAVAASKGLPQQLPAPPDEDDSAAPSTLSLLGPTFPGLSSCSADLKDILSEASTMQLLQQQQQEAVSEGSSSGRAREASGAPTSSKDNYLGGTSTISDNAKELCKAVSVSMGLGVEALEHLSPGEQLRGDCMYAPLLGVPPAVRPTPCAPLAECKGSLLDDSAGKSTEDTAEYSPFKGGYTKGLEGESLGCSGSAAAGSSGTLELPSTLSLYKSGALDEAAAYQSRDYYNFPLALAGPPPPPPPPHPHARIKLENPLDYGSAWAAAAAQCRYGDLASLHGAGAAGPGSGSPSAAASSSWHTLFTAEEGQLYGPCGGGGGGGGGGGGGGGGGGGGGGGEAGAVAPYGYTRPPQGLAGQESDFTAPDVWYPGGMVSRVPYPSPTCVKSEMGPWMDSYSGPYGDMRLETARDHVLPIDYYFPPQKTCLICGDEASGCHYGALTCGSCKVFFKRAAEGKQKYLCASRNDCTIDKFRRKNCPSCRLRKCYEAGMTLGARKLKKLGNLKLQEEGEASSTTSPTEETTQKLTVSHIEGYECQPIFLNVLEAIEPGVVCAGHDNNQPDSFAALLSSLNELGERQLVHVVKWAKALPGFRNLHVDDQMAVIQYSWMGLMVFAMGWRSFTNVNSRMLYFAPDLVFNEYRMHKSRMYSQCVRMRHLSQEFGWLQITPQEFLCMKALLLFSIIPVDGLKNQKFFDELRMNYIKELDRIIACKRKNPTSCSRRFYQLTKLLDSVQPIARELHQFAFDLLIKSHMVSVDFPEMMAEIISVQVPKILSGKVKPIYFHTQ
Description: Androgen Receptor Degradation Assay (Nano-Glo HiBiT, LnCaP cells). The conditions noted are these: 18 h, HiBiT-tagged AR LnCaP cells, 18 h incubation, fitted curve asymptote maximum of degradation, read-out: mean asymptote max. It is filed as cell-based. Here is the method: Degradation of Androgen Receptor protein in human LnCaP cells treated with PROTACs was quantified using the Nano-Glo® HiBiT Lytic Detection System (Promega) in 384 well assay plate format. A clonal LnCaP derived cell line was first established in which the AR gene was modified, using CRISPR/Cas9 editing, so the expressed AR protein included an 11 amino acid HiBiT tag at its amino-terminus. 10 mM DMSO stock solutions of PROTACs were prepared and diluted across an 11 concentration, 3 fold increment range, and 25 nL dispensed into a white opaque bottomed 384 well assay plate (Thermofisher) using an acoustic ECHO dispenser (Labcyte). Cells were grown in cell culture medium (RPMI 1640 supplemented with 15% FBS, penicillin 50U/mL and streptomycin 50 ug/mL (Thermofisher)). For the assay, cells were detached from flask and resuspended with assay medium (FluoroBrite™ DMEM supplemented with 10% heat inactivated FBS, penicillin 50U/mL and streptomycin 50 ug/mL (Thermofisher)). The cell suspension was centrifuged at 400 g for 5 min and the pellet resuspended in assay medium. 25 μL of cell suspension containing 10,000 cells was dispensed into each well of the assay plate containing a serial dilution of test compounds, which was then incubated for 18 h at 37° C./5% CO2. Control wells were included on each assay plate, with assay medium without cells being the no AR remaining 100% effect control, and cells treated with DMSO vehicle only, without PROTAC, the 0% effect control. 25 μL of Nano-Glo® HiBiT lysis buffer supplemented with LgBiT protein and Nano-Glo® substrate (Promega) was added to each well and the plate shaken at 500 rpm for 10 min at room temperature. The intensity of luminescence was measured using a PHERAstar microplate reader (BMG Labtech) and the % AR protein remaining in each well calculated by normalising the raw luminescence value to the above control wells. Parameters corresponding to the potency and efficacy estimates of the PROTACs were obtained from these normalised luminescence values using software (IDBS ActivityBase). These included the DC50 (concentration at which 50% of protein was degraded in M) and the Dmax (maximal degradation, in %) estimates. Two versions of the DC50, called relative DC50 and absolute DC50, were generated. These are the inflection point of a fitted 4 parameter sigmoidal response curve and the interpolated concentration of PROTAC corresponding to 50% of the protein being degraded, respectively. The corresponding pDC50 is reported as −log10(relative […]). The Dmax parameter was the maximum experimentally observed degradation and the asymptote max parameter the fitted response curve asymptote maximum.
A general note: With HiBiT, luminescence reflects the tagged protein that the partner subunit can reach.
Take `CC1(C)[C@H](NC(=O)c2ccc(N3CC[C@@H](CN4CCC(n5ncc6c(N7CCC(=O)NC7=O)cccc65)CC4)C3)c(F)c2)C(C)(C)[C@H]1Oc1ccc(C#N)c2ncccc12` [Example 33, N-((1r,3S)-3-((8-Cyanoquinolin-5-yl)oxy)-2,2,4,4-tetramethylcyclobutyl)-4-((S)-3-((4-(4-(2,4-dioxotetrahydropyrimidin-1(2H)-yl)-1H-indazol-1-yl)piperidin-1-yl)methyl)pyrrolidin-1-yl)-3-fluorobenzamide]: the Dmax is not below 50%.

For the compound `CC1(C)[C@H](NC(=O)c2ccc(N3CCC(CN4CCC(n5ccc6c(N7CCC(=O)NC7=O)c(F)ccc65)CC4)CC3)c(F)c2)C(C)(C)[C@H]1Oc1ccc(C#N)c2ncccc12` [Example 51, N-((1r,3r)-3-((8-Cyanoquinolin-5-yl)oxy)-2,2,4,4-tetramethylcyclobutyl)-4-(4-((4-(4-(2,4-dioxotetrahydropyrimidin-1(2H)-yl)-5-fluoro-1H-indol-1-yl)piperidin-1-yl)methyl)piperidin-1-yl)-3-fluorobenzamide], the Dmax was not below 50%.

Consider `CC1(C)[C@H](NC(=O)c2ccc(N3CCC(CN4CCC(n5ncc6c(N7CCC(=O)NC7=O)c(F)ccc65)CC4)CC3)c(F)c2)C(C)(C)[C@H]1Oc1ccc(C#N)c(Cl)c1` [Example 13, N-((1r,3r)-3-(3-Chloro-4-cyanophenoxy)-2,2,4,4-tetramethylcyclobutyl)-4-(4-((4-(4-(2,4-dioxotetrahydropyrimidin-1(2H)-yl)-5-fluoro-1H-indazol-1-yl)piperidin-1-yl)methyl)piperidin-1-yl)-3-fluorobenzamide], for which the Dmax is not below 50%.

`CC1(C)[C@H](NC(=O)c2cc(F)c(N3CCC(CN4CCC(n5ncc6c(N7CCC(=O)NC7=O)cccc65)CC4)CC3)c(F)c2)C(C)(C)[C@H]1Oc1ccc(C#N)c2ncccc12` [Example 30, N-((1r,3r)-3-((8-Cyanoquinolin-5-yl)oxy)-2,2,4,4-tetramethylcyclobutyl)-4-(4-((4-(4-(2,4-dioxotetrahydropyrimidin-1(2H)-yl)-1H-indazol-1-yl)piperidin-1-yl)methyl)piperidin-1-yl)-3,5-difluorobenzamide]: the Dmax was not below 50%.

Regarding `CC1(C)[C@H](NC(=O)c2ccc(N3CCC(CN4CC[C@@H](n5ncc6c(N7CCC(=O)NC7=O)cccc65)C4)CC3)c(F)c2)C(C)(C)[C@H]1Oc1ccc(C#N)c2ncccc12` [Example 36, N-((1r,3r)-3-((8-Cyanoquinolin-5-yl)oxy)-2,2,4,4-tetramethylcyclobutyl)-4-(4-(((R)-3-(4-(2,4-dioxotetrahydropyrimidin-1(2H)-yl)-1H-indazol-1-yl)pyrrolidin-1-yl)methyl)piperidin-1-yl)-3-fluorobenzamide], the Dmax was not below 50%.

For `CC1(C)[C@H](NC(=O)c2ccc(N3CCC(CN4CCC(n5ccc6c(N7CCC(=O)NC7=O)ncnc65)CC4)CC3)c(F)c2)C(C)(C)[C@H]1Oc1ccc(C#N)c2ncccc12` [Example 47, N-((1r,3r)-3-((8-Cyanoquinolin-5-yl)oxy)-2,2,4,4-tetramethylcyclobutyl)-4-(4-((4-(4-(2,4-dioxotetrahydropyrimidin-1(2H)-yl)-7H-pyrrolo[2,3-d]pyrimidin-7-yl)piperidin-1-yl)methyl)piperidin-1-yl)-3-fluorobenzamide], the Dmax is not below 50%.

Regarding `CC1(C)[C@H](NC(=O)c2ccc(N3CCC(CN4CCC(n5ncc6c(N7CCC(=O)NC7=O)c(F)ccc65)CC4)CC3)c(F)c2)C(C)(C)[C@H]1Oc1ccc(C#N)c2ncccc12` [Example 50, N-((1r,3r)-3-((8-Cyanoquinolin-5-yl)oxy)-2,2,4,4-tetramethylcyclobutyl)-4-(4-((4-(4-(2,4-dioxotetrahydropyrimidin-1(2H)-yl)-5-fluoro-1H-indazol-1-yl)piperidin-1-yl)methyl)piperidin-1-yl)-3-fluorobenzamide], the Dmax is not below 50%.

For the compound `CC1(C)[C@H](NC(=O)c2ccc(N3CCC(CN4CC[C@H](n5ncc6c(N7CCC(=O)NC7=O)cccc65)[C@H](F)C4)CC3)c(F)c2)C(C)(C)[C@H]1Oc1ccc(C#N)c2ncccc12` [Example 46, N-((1r,3r)-3-((8-Cyanoquinolin-5-yl)oxy)-2,2,4,4-tetramethylcyclobutyl)-4-(4-(((3R,4S)-4-(4-(2,4-dioxotetrahydropyrimidin-1(2H)-yl)-1H-indazol-1-yl)-3-fluoropiperidin-1-yl)methyl)piperidin-1-yl)-3-fluorobenzamide], the Dmax is not below 50%.

In the case of `CC1(C)[C@H](NC(=O)c2ccc(N3CCC(CN4CCC(n5ncc6c(N7CCC(=O)NC7=O)cccc65)CC4)CC3)c(Cl)c2)C(C)(C)[C@H]1Oc1ccc(C#N)c2ncccc12` [Example 44, 3-Chloro-N-((1r,3r)-3-((8-cyanoquinolin-5-yl)oxy)-2,2,4,4-tetramethylcyclobutyl)-4-(4-((4-(4-(2,4-dioxotetrahydropyrimidin-1(2H)-yl)-1H-indazol-1-yl)piperidin-1-yl)methyl)piperidin-1-yl)benzamide], the Dmax was not below 50%.

Regarding `CC1(C)[C@H](NC(=O)c2ccc(N3CCC(CN4CC[C@H](n5ncc6c(N7CCC(=O)NC7=O)cccc65)C4)CC3)c(F)c2)C(C)(C)[C@H]1Oc1ccc(C#N)c2ncccc12` [Example 37, N-((1r,3r)-3-((8-Cyanoquinolin-5-yl)oxy)-2,2,4,4-tetramethylcyclobutyl)-4-(4-(((S)-3-(4-(2,4-dioxotetrahydropyrimidin-1(2H)-yl)-1H-indazol-1-yl)pyrrolidin-1-yl)methyl)piperidin-1-yl)-3-fluorobenzamide], the Dmax was not below 50%.

As for `COc1cc(O[C@H]2C(C)(C)[C@H](NC(=O)c3ccc(N4CCC(CN5CC[C@@H](n6ncc7c(N8CCC(=O)NC8=O)cccc76)[C@@H](F)C5)CC4)c(F)c3)C2(C)C)ccc1C#N` [Example 27, N-((1r,3r)-3-(4-Cyano-3-methoxyphenoxy)-2,2,4,4-tetramethylcyclobutyl)-4-(4-(((3,4R)-4-(4-(2,4-dioxotetrahydropyrimidin-1(2H)-yl)-1H-indazol-1-yl)-3-fluoropiperidin-1-yl)methyl)piperidin-1-yl)-3-fluorobenzamide], the Dmax was not below 50%.

Turning to `CC1(C)[C@H](NC(=O)c2ccc(N3CCC(CN4CCC(n5ncc6c(N7CCC(=O)NC7=O)nccc65)CC4)CC3)c(F)c2)C(C)(C)[C@H]1Oc1ccc(C#N)c2ncccc12` [Example 39, N-((1r,3r)-3-((8-Cyanoquinolin-5-yl)oxy)-2,2,4,4-tetramethylcyclobutyl)-4-(4-((4-(4-(2,4-dioxotetrahydropyrimidin-1(2H)-yl)-1H-pyrazolo[4,3-c]pyridin-1-yl)piperidin-1-yl)methyl)piperidin-1-yl)-3-fluorobenzamide], the Dmax is not below 50%.
